Measured values as given in PubChem BioAssay AID1549 (Sanford-Burnham Center for Chemical Genomics, 2009).
Calls of active or inactive are those of the source. The rule behind the calls is not given here.

The compounds below were run against Influenza A virus M2 proton channel (A/TW/4845/1999 H1N1) (assay: NMR binding screen, influenza A virus M2 proton channel, Kd (AID 1549)). Conditions: M2 protein.
In the case of `Cc1cc(C)nc(/N=C(/N)N2CCOCC2)n1`, the Kd is reported as > 4 mM (inactive).
For `OCCNC(=S)Nc1ccc(F)cc1`, the Kd was > 4 mM (inactive).
In the case of `C=C[C@@]1(C)CC(=O)[C@@]2(O)[C@](C)(O1)[C@@H](OC(C)=O)[C@@H](O)C1C(C)(C)CC[C@H](O)[C@@]12C` (stereo partly drawn), the Kd is reported as > 4 mM (inactive).
With `Cc1ccccc1CSc1nncn1N` the Kd was > 4 mM (inactive).
`Nc1cccc(CC(=S)N2CCOCC2)c1` was tested, and the Kd was > 4 mM (inactive).
With `CC(=O)Nc1ccn(-c2ccccc2)n1` the Kd was > 4 mM (inactive).
With `COc1cc(O)c2c(=O)cc(-c3ccc(OC)c(-c4c(O)cc(O)c5c(=O)cc(-c6ccc(O)cc6)oc45)c3)oc2c1` the Kd was > 4 mM (inactive).
With `CN1CCC(NC(=O)c2ccccc2[N+](=O)[O-])CC1` the Kd was > 4 mM (inactive).
`Cc1n[nH]c(=O)c2ncn(C)c12` was tested, and the Kd was > 4 mM (inactive).
With `O=C1CSC(c2ccc3c(c2)OCO3)N1` (stereo not drawn) the Kd was > 4 mM (inactive).
In the case of `OCC1CCN(c2ncccn2)CC1`, the Kd is reported as > 4 mM (inactive).
In the case of `NC(=O)c1ccccc1N1CCCCC1`, the Kd is reported as > 4 mM (inactive).
With `O=C(Nc1cccc(Cl)c1)c1cnn2cccnc12` the Kd was > 4 mM (inactive).
In the case of `CCNC(CC(=O)Nc1cccc([N+](=O)[O-])c1)C(=O)O` (stereo not drawn), the Kd is reported as > 4 mM (inactive).
For `OCc1ncoc1-c1ccccc1`, the Kd was > 4 mM (inactive).
In the case of `COc1cc(O)c(C(C)=O)c(OC)c1`, the Kd is reported as > 4 mM (inactive).
For `FC(F)(F)c1nnc2ccc(N3CCOCC3)nn12`, the Kd was > 4 mM (inactive).
For `O=C(CC1NC(=O)NC1=O)Nc1ccccc1` (stereo not drawn), the Kd was > 4 mM (inactive).
`O=S(=O)(Nc1ccc2c(c1)OCCO2)c1cccs1` was tested, and the Kd was > 4 mM (inactive).
In the case of `O=C(Nc1cccnc1)N1CCOCC1`, the Kd is reported as > 4 mM (inactive).
In the case of `CCOC(=O)N1CCCC1c1cccnc1` (stereo not drawn), the Kd is reported as > 4 mM (inactive).
`COc1nc(C)ccc1-c1noc(-c2ccco2)n1` was tested, and the Kd was > 4 mM (inactive).
In the case of `Cn1nc(C(=O)NCc2cccnc2)c2ccccc2c1=O`, the Kd is reported as > 4 mM (inactive).
With `CC1=C(/C=C/C(C)=C/C=C/C(C)=C/CO)C(C)(C)CCC1` the Kd was > 4 mM (inactive).
For `Cc1nc2ccccc2c2c1C(=O)N(N)C2=O`, the Kd was > 4 mM (inactive).
In the case of `C[C@]12CCC3C(CC[C@H]4C[C@@H](O)CC[C@]34C)C1CCC2=O` (stereo partly drawn), the Kd is reported as > 4 mM (inactive).
`COC(=O)CSc1nnc(-c2ccc(C(=O)O)cc2)o1` was tested, and the Kd was > 4 mM (inactive).
With `c1ccc(-c2nsc(N3CCCNCC3)n2)cc1` the Kd was > 4 mM (inactive).
`CC(=O)N1N=C(N)SC1c1cccnc1` (stereo not drawn) was tested, and the Kd was > 4 mM (inactive).
For `OC(c1ccccc1)c1ccccn1` (stereo not drawn), the Kd was > 4 mM (inactive).
For `Cc1nn(CC(=O)N2CCCCC2)c(=O)c2ccccc12`, the Kd was > 4 mM (inactive).
For `CC1/C(=N/O)C[C@@H]2C[C@H]1C2(C)C` (stereo partly drawn), the Kd was > 4 mM (inactive).
With `O=C(O)C1CSC(c2cccnc2)N1` (stereo not drawn) the Kd was > 4 mM (inactive).
In the case of `O=C1CC(=O)N(Cc2ccco2)C(=S)N1`, the Kd is reported as > 4 mM (inactive).
For `Cn1cccc1C(=S)N1CCOCC1`, the Kd was > 4 mM (inactive).
`CC1=CCCC2C1(C)CCC(C)C2(C)CC/C(C)=C/C[n+]1cn(C)c2c(N)ncnc21` (stereo not drawn) was tested, and the Kd was > 4 mM (inactive).
In the case of `CC(=O)Nc1ccc(S(N)(=O)=O)cc1`, the Kd is reported as > 4 mM (inactive).
`c1ccc(C[N+]23CCN(CC2)CC3)cc1` was tested, and the Kd was > 4 mM (inactive).
In the case of `CN1C(=O)c2ccc(N=C3NC(=O)CS3)cc2C1=O`, the Kd is reported as > 4 mM (inactive).
For `Cc1cc(C)n(CCCC(=O)O)n1`, the Kd was > 4 mM (inactive).
`Nc1ncnc(NCCO)c1[N+](=O)[O-]` was tested, and the Kd was > 4 mM (inactive).
In the case of `O=S(=O)(NCc1ccco1)N1CCOCC1`, the Kd is reported as > 4 mM (inactive).
In the case of `Cc1ccccc1NC(=O)/C=C\C(N)=O`, the Kd is reported as > 4 mM (inactive).
With `CCOCC(=O)N1CCc2ccccc21` the Kd was > 4 mM (inactive).
With `Cc1ccnc(NS(=O)(=O)c2cccs2)c1` the Kd was > 4 mM (inactive).
In the case of `COCC(=O)Nc1nc2ccc(C)cc2s1`, the Kd is reported as > 4 mM (inactive).
For `O=C(O)c1cc(O)c2c(c1)C(=O)c1cc(O)cc(O)c1C2=O`, the Kd was > 4 mM (inactive).
For `O=C(NCc1ccco1)c1ccc(=O)[nH]c1`, the Kd was > 4 mM (inactive).
